Measured values as given in US20240033232A1, “New use of (R)-B2-agonists in treatment of sepsis and acute respiratory distress syndrome” (priority 2021, published 2024).

Key:
[1] = tested on: patients with acute respiratory distress Syndrome (ARDS) caused by sepsis; details: cited from earlier work
[2] = tested on: macrophages from the peritoneal fluid; assay: LPS induced proliferation and polarization of macrophages from the peritoneal fluid; type: in vivo; details: for polarized M1 macrophages or M2 macrophages: in comparison of sepsis condition
[3] = tested on: inflammatory cells, such as WBC, neutrophils and monocytes; assay: Systemic inflammatory cells in sepsis; type: in vivo
[4] = tested on: INFs, IL-1B, IL-2,4,6,10,12, TNFa and MCP; assay: Cytokine storm in sepsis, production and release of cytokines
[5] = tested on: inducible NO (iNO) and another ROS; assay: Inducible NO, ROS and coagulation disorder induced by LPS sepsis
[6] = tested on: sepsis by high doses LPS challenge; assay: LPS sepsis, mortality of mice; type: in vivo; details: for survival: high doses LPS challenge; for mortality: high doses LPS challenge (100% mortality without treatment)
[7] = tested on: sepsis and sepsis related ARDS; assay: Overall effect on sepsis and sepsis related ARDS; details: in vivo
[8] = tested on: tissue of lung, heart or kidney; assay: Pathological examination of organs in sepsis; type: in vivo
NF-κB and MARK pathways = NF-κB and MARK pathways activated by LPS in sepsis
[9] = tested on: bronchial hyper-responsiveness induced by LPS sepsis; assay: Lung function and bronchial hyper-responsiveness in LPS sepsis; type: in vivo; details: for bronchial hyper-responsiveness: induced by LPS sepsis

## CC(C)(C)NCC(O)c1ccc(O)c(CO)c1 (racemic) [salbutamol]
[1]
  ICU mortality and hospital mortality in comparing with placebo: significantly increased
[1]; salbutamol infusion
  increase of mortality in comparing with placebo: 11%

## CC(C)(C)NC[C@H](O)c1ccc(O)c(CO)c1 [(R)-salbutamol]
[2]; LPS induced
  number of macrophages from the peritoneal fluid: significantly reduced toward normal level
[2]
  polarized M1 macrophages or M2 macrophages: significant reduction
[3]
  increase of inflammatory cells (WBC, neutrophils, monocytes): significantly inhibite
[4]
  production and release of cytokines: significantly reduced
[5]
  coagulating system disorder such as disseminated intravascular coagulation (DIC): prevent
  over production of inducible NO (iNO) and another ROS: significantly prevent and inhibit
[6]
  survival: most of animal survived
  mortality: greatly reduced
[7]
  effect on sepsis and sepsis related ARDS: very effective
[8]
  pathological changes (inflammatory infiltration, edema, lesions, apoptosis) in lung, heart or kidney: greatly ameliorated and improved

## CC(C)(C)NC[C@H](O)c1cc(O)cc(O)c1 [(R)-terbutaline]
NF-κB and MARK pathways
  NF-κB and MARK pathways (expression or phosphorylation): significantly inhibited
[3]
  increase of inflammatory cells (WBC, neutrophils, monocytes): significantly inhibite
[4]
  production and release of cytokines: significantly reduced
[5]
  coagulating system disorder such as disseminated intravascular coagulation (DIC): prevent
  over production of inducible NO (iNO) and another ROS: significantly prevent and inhibit
[6]
  survival: most of animal survived
  mortality: greatly reduced
[9]
  bronchial hyper-responsiveness: significantly ameliorated
[9]; sepsis
  arterial oxygenation: maintain a normal arterial oxygenation
  deterioration of lung function: prevent or restored the deterioration
[7]
  effect on sepsis and sepsis related ARDS: very effective
[8]
  pathological changes (inflammatory infiltration, edema, lesions, apoptosis) in lung, heart or kidney: greatly ameliorated and improved

## CC(C)(C)NC[C@@H](O)c1ccc(O)c(CO)c1 [(S)-salbutamol]
[7]
  effect on sepsis and sepsis related ARDS: increase the risk of sepsis or worsen sepsis
[8]
  pathological changes (inflammatory infiltration, edema, lesions, apoptosis) in lung, heart or kidney: further worsened

## OCc1cc([C@H](O)CNCCCCCCOCCCCc2ccccc2)ccc1O [(S)-salmeterol]
[2]
  polarized M1 macrophages or M2 macrophages: further increased

## CC(C)(C)NC[C@@H](O)c1cc(O)cc(O)c1 [(S)-terbutaline]
NF-κB and MARK pathways
  NF-κB and MARK pathways (expression or phosphorylation): further enhanced
[3]
  increase of inflammatory cells (WBC, neutrophils, monocytes): further increased
[9]
  bronchial hyper-responsiveness: further worsened
[7]
  effect on sepsis and sepsis related ARDS: increase the risk of sepsis or worsen sepsis
[8]
  pathological changes (inflammatory infiltration, edema, lesions, apoptosis) in lung, heart or kidney: further worsened
